Like-named read-outs stand apart in the source and are kept apart here.
Test system: HCT116 cells
Test: Nicotinic Acid Rescue Cytotoxicity Assay, first method: cytotoxicity to HCT116 cells in presence and absence of 10 μM nicotinic acid
Type: cell-based
Conditions: Homo sapiens, HCT-116, 72 h
Procedure: Additionally, Nicotinic Acid (NA) rescue of cytotoxicity of Nampt inhibitors was assessed by two distinct methods. In the first method, Nampt1 inhibitor cytotoxicity was evaluated in the presence and absence of exogenous nicotinic acid (NA) at a fixed concentration. […] Twenty four hours after cells were plated, the media was removed and replaced with media containing 10 μM nicotinic acid. Compounds were then immediately added. Cell viability was then assessed at 72 h.
Using the first of the two assays described above, the 90 compounds shown in Table 5, below, were tested for cytotoxicity towards Naprt1-proficient HCT116 cells, and for the ability of NA to block the observed cytotoxicity (or “rescue” the cells from the cytotoxic activity of the tested compound). The compounds listed are referred to by a unique rescue analysis example number (i.e., R1, R2 . . . R90) that is used as a reference number in Table 4, in which the results of the cytotoxicity and rescue assays are presented.

[1] = absence of nicotinic acid, read-out: HCT116 72 h cytotoxicity
[2] = presence of 10 μM nicotinic acid, read-out: HCT116 72 h cytotoxicity with 10 μM Nicotinic Acid

| Compound | IC50 [1] | IC50 [2] |
| --- | --- | --- |
| C#CCN(Cc1cc2c(=O)n(C)c(CN3CCN(C)CC3)nc2cc1Cl)c1ccc(C(=O)NCc2cccnc2)cc1 [Example R1] | 0.0007 µM | > 10 µM |
| C#CCN(Cc1cc2c(=O)n(C)c(CN3CCN(CCN)CC3)nc2cc1Cl)c1ccc(C(=O)NCc2cccnc2)cc1 [Example R2, 4-{[(2-{[4-(2-Aminoethyl)piperazin-1-yl]methyl}-7-chloro-3-methyl-4-oxo-3,4-dihydroquinazolin-6-yl)methyl](prop-2-yn-1-yl)amino}-N-(pyridin-3-ylmethyl)benzamide] | 0.0183 µM | > 50 µM |
| O=C(/C=C/c1cccnc1)NCCCCC1CCN(C(=O)c2ccccc2)CC1 [Example R3, (2E)-N-[4-(1-Benzoylpiperidin-4-yl)butyl]-3-(pyridin-3-yl)prop-2-enamide] | 0.0014 µM | > 10 µM |
| C#CCN(Cc1cc2c(=O)n(C)c(CN3CCN(C)CC3)nc2cc1Cl)c1ccc(C(=O)NCc2ccccn2)cc1 [Example R4, 4-[({7-Chloro-3-methyl-2-[(4-methylpiperazin-1-yl)methyl]-4-oxo-3,4-dihydroquinazolin-6-yl}methyl)(prop-2-yn-1-yl)amino]-N-(pyridin-2-ylmethyl)benzamide] | 0.276 µM | > 10 µM |
| N#C/N=C(/NCCCCCCOc1ccc(Cl)cc1)Nc1ccncc1 [Example R5, 1-[6-(4-Chlorophenoxy)hexyl]-2-cyano-3-pyridin-4-ylguanidine] | 0.0016 µM | > 10 µM |
| O=C(NCc1cccnc1)c1ccc(NC(=O)c2ccccc2)cc1 [Example R6, 4-[(Phenylcarbonyl)amino]-N-(pyridin-3-ylmethyl)benzamide] | 1.69 µM | > 10 µM |
| O=C(NCc1cccnc1)c1ccc(NNc2ccc(C(=O)NCc3cccnc3)cc2)cc1 [Example R7, 4,4′-Hydrazine-1,2-diylbis[N-(pyridin-3-ylmethyl)benzamide]] | 0.0088 µM | 22 µM |
| O=C(NCc1cccnc1)c1ccc(NCc2ccccc2OC(F)(F)F)cc1 [Example R8, N-(Pyridin-3-ylmethyl)-4-{[2-(trifluoromethoxy)benzyl]amino}benzamide] | 3.13 µM | > 10 µM |
| C#CCN(Cc1ccccc1-c1ccccc1)c1ccc(C(=O)NCc2cccnc2)cc1 [Example R9, 4-[(Biphenyl-2-ylmethyl)(prop-2-yn-1-yl)amino]-N-(pyridin-3-ylmethyl)benzamide] | 0.0415 µM | 12 µM |
| C#CCN(Cc1ccccc1C(F)(F)F)c1ccc(C(=O)NCc2cccnc2)cc1 [Example R10, 4-{Prop-2-yn-1-yl[2-(trifluoromethyl)benzyl]amino}-N-(pyridin-3-ylmethyl)benzamide] | 1.11 µM | > 5 µM |
| O=C(Nc1ccc(C(=O)NCc2cccnc2)cc1)Nc1ccccc1-c1ccccc1 [Example R11, 4-[(Biphenyl-2-ylcarbamoyl)amino]-N-(pyridin-3-ylmethyl)benzamide] | 0.424 µM | > 50 µM |
| O=C(Nc1ccc(C(=O)NCc2cccnc2)cc1)Nc1ccc(Cl)c(Cl)c1 [Example R12, 4-{[(3,4-Dichlorophenyl)carbamoyl]amino}-N-(pyridin-3-ylmethyl)benzamide] | 9.64 µM | 24.8 µM |
| O=C(NCc1cccnc1)c1ccc(NC(=S)Nc2ccccc2Br)cc1 [Example R13, 4-{[(2-Bromophenyl)carbamothioyl]amino}-N-(pyridin-3-ylmethyl)benzamide] | 1.61 µM | > 50 µM |
| O=C(Nc1ccc(C(=O)NCc2cccnc2)cc1)Nc1cc(C(F)(F)F)cc(C(F)(F)F)c1 [Example R14, 4-({[3,5-Bis(trifluoromethyl)phenyl]carbamoyl}amino)-N-(pyridin-3-ylmethyl)benzamide] | 7.39 µM | 21.5 µM |
| O=C(NCc1cccnc1)c1ccc(NC(=S)Nc2cccc(OCc3ccccc3)c2)cc1 [Example R15, 4-({[3-(Benzyloxy)phenyl]carbamothioyl}amino)-N-(pyridin-3-ylmethyl)benzamide] | 4.69 µM | > 50 µM |
| O=C(CN1CCc2ccccc21)Nc1ccc(C(=O)NCc2cccnc2)cc1 [Example R16, 4-[(2,3-Dihydro-1H-indol-1-ylacetyl)amino]-N-(pyridin-3-ylmethyl)benzamide] | 3.29 µM | > 50 µM |
| O=C(CN1CCCc2ccccc21)Nc1ccc(C(=O)NCc2cccnc2)cc1 [Example R17, 4-[(3,4-Dihydroquinolin-1(2H)-ylacetyl)amino]-N-(pyridin-3-ylmethyl)benzamide] | 2.05 µM | > 50 µM |
| O=C(CNCc1ccccc1Br)Nc1ccc(C(=O)NCc2cccnc2)cc1 [Example R18, 4-{[N-(2-Bromobenzyl)glycyl]amino}-N-(pyridin-3-ylmethyl)benzamide] | 6.81 µM | > 50 µM |
| O=C(CNc1ccccc1Oc1ccccc1)Nc1ccc(C(=O)NCc2cccnc2)cc1 [Example R19, 4-{[N-(2-Phenoxyphenyl)glycyl]amino}-N-(pyridin-3-ylmethyl)benzamide] | 0.586 µM | > 50 µM |

| Compound | IC50 [1] | IC50 [2] |
| --- | --- | --- |
| Cc1ccccc1NCC(=O)Nc1ccc(C(=O)NCc2cccnc2)cc1 [Example R20, 4-{[N-(2-Methylphenyl)glycyl]amino}-N-(pyridin-3-ylmethyl)benzamide] | 0.106 µM | > 50 µM |
| CCOc1ccccc1NCC(=O)Nc1ccc(C(=O)NCc2cccnc2)cc1 [Example R21, 4-{[N-(2-Ethoxyphenyl)glycyl]amino}-N-(pyridin-3-ylmethyl)benzamide] | 0.435 µM | > 50 µM |
| CC(C)c1ccccc1NCC(=O)Nc1ccc(C(=O)NCc2cccnc2)cc1 [Example R22] | 0.302 µM | > 50 µM |
| O=C(NCc1cccnc1)c1ccc(OCc2ccccc2-c2ccccc2)cc1 [Example R23, 4-(Biphenyl-2-ylmethoxy)-N-(pyridin-3-ylmethyl)benzamide] | 0.539 µM | > 50 µM |
| Cc1c(COc2ccc(C(=O)NCc3cccnc3)cc2)cccc1C(F)(F)F [Example R24, 4-{[2-Methyl-3-(trifluoromethyl)benzyl]oxy}-N-(pyridin-3-ylmethyl)benzamide] | 12 µM | 45 µM |
| CC(C)c1cccc(-c2ccccc2CNc2ccc(C(=O)NCc3cccnc3)cc2)c1 [Example R25, 4-({[3′-(Propan-2-yl)biphenyl-2-yl]methyl}amino)-N-(pyridin-3-ylmethyl)benzamide] | 8.33 µM | 37 µM |
| CC(=O)Nc1cccc(-c2ccccc2CNc2ccc(C(=O)NCc3cccnc3)cc2)c1 [Example R26, 4-({[3′-(Acetylamino)biphenyl-2-yl]methyl}amino)-N-(pyridin-3-ylmethyl)benzamide] | 0.0269 µM | 25 µM |
| O=C(NCc1cccnc1)c1ccc(NCc2ccccc2-c2ccccc2)cc1 [Example R27, 4-[(Biphenyl-2-ylmethyl)amino]-N-(pyridin-3-ylmethyl)benzamide] | 0.0871 µM | 37 µM |
| Cc1ccccc1-c1ccccc1CNc1ccc(C(=O)NCc2cccnc2)cc1 [Example R28, 4-{[(2′-Methylbiphenyl-2-yl)methyl]amino}-N-(pyridin-3-ylmethyl)benzamide] | 0.335 µM | 25 µM |
| O=C(NCc1cccnc1)c1ccc(NCc2ccccc2-c2cccc(C(F)(F)F)c2)cc1 [Example R29, N-(Pyridin-3-ylmethyl)-4-({[3′-(trifluoromethyl)biphenyl-2-yl]methyl}amino)benzamide] | 10.3 µM | 25 µM |
| O=C(NCc1cccnc1)c1ccc(NCc2ccccc2-c2cccc(Cl)c2)cc1 [Example R30, 4-{[(3′-Chlorobiphenyl-2-yl)methyl]amino}-N-(pyridin-3-ylmethyl)benzamide] | 1.35 µM | 29 µM |
| O=C(NCc1cccnc1)Nc1ccc(NCc2ccccc2Cl)cc1 [Example R31, 1-{4-[(2-Chlorobenzyl)amino]phenyl}-3-(pyridin-3-ylmethyl)urea] | 1.27 µM | > 50 µM |
| O=C(NCc1cccnc1)Nc1ccc(NS(=O)(=O)c2ccccc2)cc1 [Example R32, N-(4-{[(Pyridin-3-ylmethyl)carbamoyl]amino}phenyl)benzene-sulfonamide] | 0.194 µM | > 50 µM |
| O=C(NCc1cccnc1)Nc1ccc(NS(=O)(=O)c2ccccc2Br)cc1 [Example R33, 2-Bromo-N-(4-{[(pyridin-3-ylmethyl)carbamoyl]amino}phenyl)benzene-sulfonamide] | 0.0046 µM | > 50 µM |
| O=C(NCCc1cccnc1)c1ccc(NCc2ccccc2Br)cc1 [Example R34, 4-[(2-Bromobenzyl)amino]-N-[2-(pyridin-3-yl)ethyl]benzamide] | 1.16 µM | > 50 µM |
| N#Cc1ccc(NC(=S)NCCCCCCOc2ccc(Cl)cc2)cc1 [Example R35, 1-[6-(4-Chlorophenoxy)hexyl]-3-(4-cyanophenyl)thiourea] | 1.53 µM | 2 µM |
| N#C/N=C(\NCCCCCCOc1ccc(Cl)cc1)Nc1ccc(Br)nc1 [Example R36, 1-(6-Bromopyridin-3-yl)-2-[6-(4-chlorophenoxy)hexyl]-3-cyanoguanidine] | 6 µM | > 10 µM |
| N#C/N=C(\NCCCCCCOc1ccc(Cl)cc1)Nc1ccnc(Cl)c1 [Example R37, 1-[6-(4-Chlorophenoxy)hexyl]-2-(2-chloropyridin-4-yl)-3-cyanoguanidine] | 0.169 µM | 5 µM |
| Cc1cnccc1N/C(=N/C#N)NCCCCCCOc1ccc(Cl)cc1 [Example R38, 1-[6-(4-Chlorophenoxy)hexyl]-2-cyano-3-(3-methylpyridin-4-yl)guanidine] | 0.0014 µM | > 10 µM |
